What is called mortality is the percentage killed. The term inhibition denotes the relative decrease from the control value, in per cent. As usually defined, the EC50 is the concentration at which the effect is half-maximal.

The text below walks through data of paper PMC8836147, “Design, Synthesis and Antifungal/Nematicidal Activity of Novel 1,2,4-Oxadiazole Derivatives Containing Amide Fragments” (International Journal of Molecular Sciences, 2022).

Converted amounts (≈) assume the structure as drawn.

One data set in a line: MTT cytotoxicity assay. It counts as cell-based. Conditions: human, L-02 normal liver cells, L-02 cells. The protocol:
The human liver L-02 cells were obtained from the biology laboratory in Key Laboratory of Chemistry for Natural Products of Guizhou Province and Chinese Academy of Sciences (Guiyang, China). The cells were grown in Dulbecco’s Modified Eagle’s Medium (supplemented with 10% (v/v) FBS, 100 U/mL penicillin, and 100 μg/mL streptomycin) at 37 °C in a CO2 incubator (5% CO2 and 95% air, 95% humidity). The effect of some compounds on cell viability was determined with the MTT assay according to the previously published literature. A total of 5000 cells were inoculated in a 96-well plate and three wells of each concentration of test compound were used. A total of 24 h after inoculation, the cells had grown to ~60% confluency, and different concentrations of compounds were added, and then the cells were cultured for 48 h. DMSO was used as the control. A total of 20 μL of MTT solution was added to each well and incubated at 37 °C for 4 h. Formazan crystals were dissolved in 150 μL of DMSO and quantified using a microplate reader (Thermo Scientific, Vario Skan Flash, Shanghai Bio-Gene Technology Co., LTD, Shanghai, China) at 490 nm. The cytotoxicity was calculated according to following formula:Cytotoxicity (%) = [(OCK − OT)/OCK] × 100%(2) where OCK represents the optical density (OD) value of the blank control group, and OT represents the OD value of experimental group.

For another data set, the system named is C. elegans. Nature of the data set: microbe, parasite or virus in culture. Conditions: 48 h; for mortality at 50 µg/mL / mortality at 200 µg/mL: Caenorhabditis elegans, read-out: Corrected Mortality Rate ± SD (%) C. elegans. An excerpt: (§1) M. incognita (parasitic on tomato plants), A. besseyi (potato dextrose agar–Botrytis cinerea breeding), B. xylophilus (potato dextrose agar–Botrytis cinerea breeding), and C. elegans (nematode growth medium–inactivated Escherichia coli OP50 cultivation) were provided by the Fine Chemical Research and Development Center of Guizhou University (Guizhou, China). The methodology used for the nematocidal bioassays of these target compounds was modified in the light of the conventional methods reported in the previously published literature. The nematicidal activity of the target compounds against four nematodes was determined using 48-well biochemical culture dishes. All of the compounds were dissolved with 100 μL DMF and were diluted with 1% Tween-80 to obtain 200 and 50 μg/mL concentrations for the bioassays. Fosthiazate and tioxazafen were used as positive controls at the same concentrations, and a negative control group was prepared without compounds using the same methodology. An amount of 10 µL of nematode suspension (about 50 nematodes) and 300 µL of the trial solution were added to corresponding hole, and each treatment was set to three repetitions. All of the 48-well plates were placed in a biochemical incubator at 27 °C for dark light culture. […] Corrected mortality (%) = [(mortality of treatment % − mortality of negative control %)/(1 − mortality of negative control %)] × 100%(3)

The test system of another data set is A. besseyi. In words: microbe, parasite or virus in culture. Conditions: Aphelenchoides besseyi, 48 h, read-out: Corrected Mortality Rate ± SD (%) A. besseyi.
Excerpt: as §1

The test system of a further data set is B. xylophilus. In words: microbe, parasite or virus in culture. Conditions: Bursaphelenchus xylophilus, 48 h, read-out: Corrected Mortality Rate ± SD (%) B. xylophilus.
Excerpt: as §1

The test system of another data set is M. incognita. In words: microbe, parasite or virus in culture. The following applies: Meloidogyne incognita, 48 h, read-out: Corrected Mortality Rate ± SD (%) M. incognita.
Excerpt: as §1

The test system of the next data set is B. cinerea. Nature of the data set: In vitro mycelium growth inhibition test. The format is cell-based. The following applies: Botrytis cinerea; 50 μg/mL; mycelial growth; mean ± SD of three replicates; read-out: Inhibition Rate (%) B. cinerea. How it is done: (§2) B. cinerea and S. scleotiorum were kindly provided by the Department of Pesticides, College of Plant Protection, Nanjing Agricultural University (Nanjing, China). All compounds were evaluated for mycelium growth inhibition tests against the two plant pathogenic fungi mentioned in previous reports. These two fungi were inoculated on potato dextrose agar (PDA) plates and were grown in biochemical incubators at 25 ± 1 °C for 2–4 days. The new mycelium was used to determine the antifungal activity. The target compounds were dissolved in 100 µL DMF, and they were then added into the PDA media to make the concentration 50 µg/mL. Mycelia dishes of about 5 mm in diameter were cut from the culture medium. Mycelium were picked up with a sterile inoculation needle, and the sample was inoculated in the middle of a PDA plate in a sterile environment. Afterwards, a preliminary screening of fungal activity was performed. […] Each test was carried out three times. The radial growth of the fungal colonies was gauged and recorded when the diameters of the blank control mycelia reached 5.0–5.5 cm. […] The final data were analyzed using SPSS v.25.0 (IBM, New York, NY, USA). The following formula was used to calculate the fungi inhibition rate. Inhibition rate (%) = [(Mycelium diameter of negative control − Mycelium diameter of treatment)/(Mycelium diameter of negative control − 0.5)] × 100%(1)

A further data set has as its system S. sclerotiorum. In words: In vitro mycelium growth inhibition test. It counts as cell-based. Conditions: Sclerotinia sclerotiorum, mycelial growth, mean ± SD of three replicates; for inhibition at 50 µg/mL: 50 μg/mL, read-out: Inhibition Rate (%) S. sclerotiorum; for EC50: read-out: EC50 against S. sclerotiorum. The protocol: as §2

In “MTT cytotoxicity assay”, `O=C(NCc1ccc(F)cc1F)c1nc(-c2ccccc2)no1` [Compound F3, N -(2,4-difluorobenzyl)-3-phenyl-1,2,4-oxadiazole-5-carboxamide] displayed a cytotoxicity at 48 h, 50 μg/mL of 7.5 ± 3.8%. The cytotoxicity at 48 h, 100 μg/mL in “MTT cytotoxicity assay” was 17 ± 1.4%. In the data set “MTT cytotoxicity assay”, this compound yielded a cytotoxicity at 48 h, 200 μg/mL of 50.8 ± 3.9%. The “Corrected Mortality Rate ± SD (%) C. elegans” value in the data set on C. elegans (50 µg/mL) and with C. elegans (200 µg/mL) was 100.0% in each case. In addition, the mortality at 50 µg/mL was determined as 100% in the data set on C. elegans, 0% with A. besseyi, 0% in the data set with B. xylophilus and 13.9 ± 2.1% with M. incognita. Moreover, the mortality at 200 µg/mL was 100% in the data set with C. elegans, 20.1 ± 1.3% in the data set on A. besseyi, 26.1 ± 1.2% with B. xylophilus and 54.9 ± 3.3% with M. incognita. Also, the values for the inhibition at 50 µg/mL in the data set on B. cinerea and in the data set with S. sclerotiorum were 56.8 ± 0.1% and 84.8 ± 0.6%, respectively. In addition, in the data set on S. sclerotiorum, the concentration giving a half-maximal response (EC50) came to 5.4 ± 0.3 µg/mL (≈ 17.1 µM).
For `O=C(NCc1ccc(F)cc1F)c1nc(-c2ncc(C(F)(F)F)cc2Cl)no1` [Compound F23], the mortality at 50 µg/mL in the data set with C. elegans worked out at 10.6 ± 1.2%; with A. besseyi, 0%; in the data set with B. xylophilus, 0%; in the data set on M. incognita, 0%. For the same compound, the mortality at 200 µg/mL turned out to be 27.6 ± 1.2% in the data set with C. elegans, 21.5 ± 2.2% with A. besseyi, 20.3 ± 1.4% with B. xylophilus and 19.1 ± 2.2% in the data set with M. incognita. For the same compound, the inhibition at 50 µg/mL in the data set with B. cinerea was determined as 41.5 ± 0.5%; in the data set on S. sclerotiorum it was 34.6 ± 0.1%.
As to `O=C(NCCc1ncc(C(F)(F)F)cc1Cl)c1nc(-c2ncc(C(F)(F)F)cc2Cl)no1` [Compound F22], the mortality at 50 µg/mL in the data set with C. elegans was 45.7 ± 2.3%; with A. besseyi it was 0%; with B. xylophilus, 0%; in the data set with M. incognita it was 0%. Moreover, the mortality at 200 µg/mL worked out at 80.2 ± 1.5% with C. elegans, 26.5 ± 2.1% with A. besseyi, 17.1 ± 2.2% in the data set on B. xylophilus and 18.3 ± 1.7% with M. incognita. In addition, the inhibition at 50 µg/mL in the data set on B. cinerea amounted to 45.2 ± 0.9%; with S. sclerotiorum it was 37.6 ± 1.9%.
On to `O=C(Nc1ccc(Cl)cc1Cl)c1nc(-c2ccccc2)no1` [Compound F4, N-(2,4-dichlorophenyl)-3-phenyl-1,2,4-oxadiazole-5-carboxamide], for which the mortality at 50 µg/mL stood at 71.4 ± 2.2% with C. elegans, 0% in the data set on A. besseyi, 0% in the data set with B. xylophilus and 5.9 ± 1.3% in the data set on M. incognita. For the same compound, the mortality at 200 µg/mL with C. elegans stood at 98.4 ± 2.3%; in the data set with A. besseyi, 11.7 ± 1.4%; in the data set on B. xylophilus, 25.3 ± 1.7%; with M. incognita, 23.2 ± 1.4%. In addition, the values for the inhibition at 50 µg/mL in the data set on B. cinerea and with S. sclerotiorum were 20.9 ± 0.1% and 31.2 ± 0.7%, respectively.
Regarding `Cc1ccc(-c2noc(C(=O)NCCc3ncc(C(F)(F)F)cc3Cl)n2)cc1` [Compound F6, N-(2-(3-chloro-5-(trifluoromethyl)pyridin-2-yl)ethyl)-3-(p-tolyl)-1,2,4-oxadiazole-5-carboxamide], the “Corrected Mortality Rate ± SD (%) C. elegans” value with C. elegans (50 µg/mL) and with C. elegans (200 µg/mL) was 100.0% each time. The mortality at 50 µg/mL is 100% in the data set on C. elegans, 0% with A. besseyi, 0% in the data set on B. xylophilus and 7.9 ± 2.2% in the data set with M. incognita. Moreover, the mortality at 200 µg/mL came out at 100% in the data set with C. elegans, 29.4 ± 2.3% with A. besseyi, 11.6 ± 2.1% with B. xylophilus and 44.6 ± 3.8% with M. incognita. In addition, the inhibition at 50 µg/mL with B. cinerea is 22.9 ± 1.1%; with S. sclerotiorum it was 56 ± 1.4%.
Turning to `Cc1ccc(-c2noc(C(=O)NCc3ccc(F)cc3F)n2)cc1` [Compound F7, N-(2,4-difluorobenzyl)-3-(p-tolyl)-1,2,4-oxadiazole-5-carboxamide], the mortality at 50 µg/mL in the data set with C. elegans worked out at 68.2 ± 2.3%; with A. besseyi, 0%; in the data set with B. xylophilus it was 0%; in the data set with M. incognita, 5.3 ± 1.1%. In addition, the mortality at 200 µg/mL with C. elegans was 91.9 ± 2.5%; in the data set with A. besseyi, 12.2 ± 2.1%; in the data set with B. xylophilus it was 28.1 ± 2.4%; in the data set on M. incognita, 24.9 ± 3.2%. Also, the inhibition at 50 µg/mL in the data set with B. cinerea was 46.4 ± 0.8%; in the data set on S. sclerotiorum, 56.4 ± 0.1%.
`Cc1ccc(-c2noc(C(=O)Nc3ccc(Cl)cc3Cl)n2)cc1` [Compound F8, N-(2,4-dichlorophenyl)-3-(p-tolyl)-1,2,4-oxadiazole-5-carboxamide]: the mortality at 50 µg/mL came out at 47.6 ± 1.7% in the data set on C. elegans, 0% in the data set with A. besseyi, 0% in the data set on B. xylophilus and 4.9 ± 2.1% with M. incognita. The mortality at 200 µg/mL in the data set on C. elegans stood at 77.6 ± 1.2%; with A. besseyi it was 6.1 ± 1.2%; in the data set on B. xylophilus, 18.1 ± 1.2%; in the data set on M. incognita it was 23.9 ± 3.3%. Further, the inhibition at 50 µg/mL in the data set on B. cinerea was found to be 22.7 ± 1.3%; with S. sclerotiorum, 21.1 ± 1.7%.
As to `O=C(NCCc1ccccn1)c1nc(-c2ncc(C(F)(F)F)cc2Cl)no1` [Compound F21], the mortality at 50 µg/mL was 32.5 ± 2% in the data set with C. elegans, 0% in the data set with A. besseyi, 0% in the data set on B. xylophilus and 0% with M. incognita. In addition, the mortality at 200 µg/mL with C. elegans was found to be 76.8 ± 0.9%; in the data set with A. besseyi, 13 ± 0.5%; in the data set on B. xylophilus, 7.1 ± 1.9%; with M. incognita, 23.5 ± 2.4%. The inhibition at 50 µg/mL was determined as 38.8 ± 0.7% with B. cinerea and 35.1 ± 0.1% with S. sclerotiorum.
On to `Cc1nc(C(F)(F)F)c(C(=O)Nc2c(Br)cc(OC(F)(F)F)cc2Br)s1` [Thifluzamide, thifluzamide, reference compound], for which, in “MTT cytotoxicity assay”, the cytotoxicity at 48 h, 50 μg/mL was 33.3 ± 1.8%; the cytotoxicity at 48 h, 100 μg/mL came out at 33.7 ± 0.4%; the cytotoxicity at 48 h, 200 μg/mL came out at 33.9 ± 1.5%. In addition, the inhibition at 50 µg/mL in the data set on B. cinerea was 80.3 ± 0.2%. In addition, in the data set on S. sclerotiorum, the inhibition at 50 µg/mL amounted to 86.7 ± 0.3% and the EC50 was found to be 4.3 ± 1.7 µg/mL (≈ 8.14 µM).
As for `O=C(NCCc1ccccn1)c1nc(-c2ccc(Br)nc2)no1` [Compound F17], the mortality at 50 µg/mL in the data set on C. elegans was 54.2 ± 3.1%; in the data set with A. besseyi it was 0%; in the data set with B. xylophilus, 0%; in the data set with M. incognita, 0%. The mortality at 200 µg/mL was 89.7 ± 1.5% in the data set with C. elegans, 20.2 ± 1.2% in the data set on A. besseyi, 14.1 ± 1.9% in the data set on B. xylophilus and 33.5 ± 1.4% in the data set on M. incognita. For the same compound, the inhibition at 50 µg/mL in the data set with B. cinerea came out at 27.6 ± 1.4%; with S. sclerotiorum it was 10.1 ± 1.2%.
